Experimental data published in US7300946B2, “N-(substituted arylmethyl)-4-(disubstituted methyl) piperidines and pyridines” (Bayer CropScience AG, priority 2002, dated 2007).

System: tobacco budworm (Heliothis virescens [Fabricius])
Experiment: surface-treated diet test against the tobacco budworm
Type: in vivo
Conditions: tobacco budworm second instar larvae, 0.25 millimoles of candidate insecticide on the surface of the diet, five-day exposure; for Percent Mortality: compared to total number of insects infested; for Percent Growth Inhibition: inhibition of insect weight relative to untreated controls
Outline: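 Wheat germ artificial diet surface-treated with 40 µL of 50 mM DMSO stock diluted 1:7 in 1:1 water/acetone (0.25 millimolar on diet), or sub-multiples for rate tests. One second-instar larva per well, 25° C, 60% RH, 5 days; percent weight inhibition vs DMSO controls and percent mortality.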

| SMILES | Percent Mortality (surface-treated diet) | Percent Growth Inhibition (surface-treated diet) | Percent Mortality | Percent Growth Inhibition |
| --- | --- | --- | --- | --- |
| [O-][N+]1(Cc2ccc(Oc3ncccc3C(F)(F)F)cc2)CCC(=C(c2ccc(C(F)(F)F)cc2)c2ccc(C(F)(F)F)cc2)CC1 (stereo not drawn) [Compound 109] | 100% | 100% |  |  |
| FC(F)(F)c1ccc(C(=C2CCN(Cc3ccc(Oc4ncccn4)cc3)CC2)c2ccc(C(F)(F)F)cc2)cc1 [Compound 824] |  |  | 100% | 100% |
| CCON=Cc1ccc(CN2CCC(C(OC(=O)Nc3cc(F)cc(F)c3)c3ccc(C(F)(F)F)cc3)CC2)cc1 (stereo not drawn) [Compound 200] | 100% | 100% |  |  |
| CC(C)OC(=O)Nc1ccc(CN2CCC(C(OC(=O)Nc3cccc(F)c3)c3ccc(OC(F)(F)F)cc3)CC2)cc1 (stereo not drawn) [Compound 514] | 100% | 100% |  |  |
| N#Cc1ccc(Oc2ccc(CN3CCC(C(OC(=O)Nc4cc(F)cc(F)c4)c4ccc(C(F)(F)F)cc4)CC3)cc2)nc1 (stereo not drawn) [Compound 688] | 100% | 100% |  |  |
| CCn1nnc(-c2ccc(CN3CCC(C(OC(=O)Nc4ccc(Cl)cc4)c4ccc(-c5ccccc5)cc4)CC3)cc2)n1 (stereo not drawn) [Compound 611] | 83% | 100% |  |  |
| CCCOc1ccc(CN2CCC(C(OC(=O)Nc3ccc(C(F)(F)F)cc3)c3ccc(Cl)c(Cl)c3)CC2)cc1 (stereo not drawn) [Compound 484] | 100% | 100% |  |  |
| FC(F)(F)c1ccc(C(=C2CCN(Cc3ccc(Nc4ncccn4)nc3)CC2)c2ccc(C(F)(F)F)cc2)cc1 [Compound 859] |  |  | 0% | 46% |
| CCCOc1ccc(CN2CCC(=C(c3cccc(C(F)(F)F)c3)c3cccc(C(F)(F)F)c3)CC2)cc1 [Compound 45] | 0% | 24% |  |  |
| O=C(Nc1ccc(F)c(F)c1)OC(c1ccc(C(F)(F)F)cc1)C1CC[N+]([O-])(Cc2ccc(Oc3ncccn3)cc2)CC1 (stereo not drawn) [Compound 764] |  |  | 100% | 100% |
| CCON=Cc1ccc(CN2CCC(C(OC(=O)Nc3cc(F)cc(F)c3)c3ccc(F)cc3)CC2)cc1 (stereo not drawn) [Compound 528] | 100% | 100% |  |  |
| N#Cc1ccc(NC(=O)OC(c2ccc(C(F)(F)F)cc2)C2CCN(Cc3ccc(Oc4ccccn4)cc3)CC2)cc1 (stereo not drawn) [Compound 704] |  |  | 100% | 100% |
| FC(F)(F)c1ccc(C(=C2CCN(Cc3ccc(Oc4ncccn4)cc3)CC2)c2cccc(C(F)(F)F)c2)cc1 [Compound 822] |  |  | 100% | 100% |
| CC(C)OC(=O)Nc1ccc(C[N+]2([O-])CCC(=C(c3ccc(C(F)(F)F)cc3)c3ccc(C(F)(F)F)cc3)CC2)cc1 (stereo not drawn) [Compound 103] | 100% | 100% |  |  |
| O=C(Nc1ccc(F)cc1F)OC(c1ccc(C(F)(F)F)cc1)C1CC[N+]([O-])(Cc2ccc(Oc3ncccn3)cc2)CC1 (stereo not drawn) [Compound 763] |  |  | 100% | 100% |
| CCn1nnc(-c2ccc(CN3CCC(C(OC(=O)Nc4ccc(F)c(F)c4)c4cc(Cl)cc(Cl)c4)CC3)cc2)n1 (stereo not drawn) [Compound 579] | 100% | 100% |  |  |
| Cn1nnc(-c2ccc(CN3CCC(C(NCc4ccc([N+](=O)[O-])cc4)c4ccc(OC(F)(F)F)cc4)CC3)cc2)n1 (stereo not drawn) [Compound 320] | 100% | 100% |  |  |
| [O-][N+]1(Cc2ccc(OCc3nccs3)cc2)CCC(=C(c2ccc(C(F)(F)F)cc2)c2ccc(C(F)(F)F)cc2)CC1 (stereo not drawn) [Compound 105] | 100% | 100% |  |  |
| Fc1cc(F)cc(NC(=S)OC(c2ccc(C(F)(F)F)cc2)C2CCN(Cc3ccc(Oc4ccccn4)cc3)CC2)c1 (stereo not drawn) [Compound 681] | 100% | 100% |  |  |
| CC(C)OC(=O)Nc1ccc(CN2CCC(C(OC(=O)Nc3cc(F)cc(F)c3)c3cc(Cl)cc(Cl)c3)CC2)cc1 (stereo not drawn) [Compound 510] | 100% | 100% |  |  |
| CCn1nnc(-c2ccc(CN3CCC(C(OC(=O)Nc4ccc(Cl)c(Cl)c4)c4ccc(Cl)c(Cl)c4)CC3)cc2)n1 (stereo not drawn) [Compound 573] | 100% | 100% |  |  |
| CCn1nnc(-c2ccc(CN3CCC(C(OC(=O)Nc4ccc(Cl)cc4)c4cc(F)cc(F)c4)CC3)cc2)n1 (stereo not drawn) [Compound 590] | 100% | 100% |  |  |
| O=C(Nc1cc(F)cc(F)c1)OC(c1ccc(C(F)(F)F)cc1)C1CCN(Cc2ccc(-n3cccn3)cc2)CC1 (stereo not drawn) [Compound 556] | 100% | 100% |  |  |
| FC(F)(F)c1ccc(C(=C2CCN(Cc3ccc(OC4=NCCCN4)cc3)CC2)c2ccc(C(F)(F)F)cc2)cc1 [Compound 823] |  |  | 67% | 100% |

| SMILES | Percent Mortality (surface-treated diet) | Percent Growth Inhibition (surface-treated diet) | Percent Mortality | Percent Growth Inhibition |
| --- | --- | --- | --- | --- |
| CCON=Cc1ccc(CN2CCC(C(OC(=O)Nc3cccc4c3CC=CC4)c3ccc(C(F)(F)F)cc3)CC2)cc1 (stereo not drawn) [Compound 214] | 0% | 100% |  |  |
| FC(F)(F)Oc1ccc(C(Oc2ccc(C(F)(F)F)cc2)C2CCN(Cc3ccc(Oc4ncccn4)cc3)CC2)cc1 (stereo not drawn) [Compound 456] | 17% | 100% |  |  |
| O=C(Nc1cccc(F)c1)OC(c1ccc(C(F)(F)F)cc1)C1CCN(Cc2ccc(Oc3ccccn3)cc2)CC1 (stereo not drawn) [Compound 674] | 100% | 100% |  |  |
| Cc1ccc(OC(=O)NC(c2ccc(OC(F)(F)F)cc2)C2CCN(Cc3ccc(-c4nnn(C)n4)cc3)CC2)cc1 (stereo not drawn) [Compound 355] | 100% | 100% |  |  |
| CCn1nnc(-c2ccc(CN3CCC(C(OC(=O)Nc4ccc(Br)cc4)c4ccc(C(F)(F)F)cc4)CC3)cc2)n1 (stereo not drawn) [Compound 269] | 100% | 100% |  |  |
| O=C(NC1CCCCC1)OC(c1ccc(C(F)(F)F)cc1)C1CCN(Cc2ccc(Oc3ccccn3)cc2)CC1 (stereo not drawn) [Compound 782] |  |  | 100% | 100% |
| CCOC(=O)c1ccc(C[N+]2([O-])CCC(=C(c3ccc(C(F)(F)F)cc3)c3ccc(C(F)(F)F)cc3)CC2)cc1 (stereo not drawn) [Compound 99] | 100% | 100% |  |  |
| O=C(Nc1ccc(C(F)(F)F)nc1)OC(c1ccc(C(F)(F)F)cc1)C1CCN(Cc2ccc(Oc3ccccn3)cc2)CC1 (stereo not drawn) [Compound 448] | 100% | 100% |  |  |
| CCn1nnc(-c2ccc(CN3CCC(C(OC(=O)Nc4ccc(Cl)cc4)c4ccc(Cl)c(Cl)c4)CC3)cc2)n1 (stereo not drawn) [Compound 572] | 100% | 100% |  |  |
| O=C(Nc1ccc(F)cc1)OC(c1ccc(OC(F)(F)F)cc1)C1CCN(Cc2ccc(Oc3ccccn3)cc2)CC1 (stereo not drawn) [Compound 236] | 100% | 100% |  |  |
| CCOC(=O)N(C)c1ccc(CN2CCC(=C(c3ccc(C(F)(F)F)cc3)c3ccc(C(F)(F)F)cc3)CC2)cc1 [Compound 56] | 100% | 100% |  |  |
| COc1ccc(C(=C2CC[N+]([O-])(Cc3ccc(NC(=O)OC(C)C)cc3)CC2)c2ccc(OC)cc2)cc1 (stereo not drawn) [Compound 835] |  |  | 0% | 80% |
| O=C(Nc1cc(F)cc(F)c1)OC(c1ccc(C(F)(F)F)cc1)C1CCN(Cc2ccc(Oc3ccccc3)cc2)CC1 (stereo not drawn) [Compound 546] | 100% | 100% |  |  |
| O=C(Nc1ccc(Cl)cn1)OC(c1ccc(C(F)(F)F)cc1)C1CCN(Cc2ccc(Oc3ccccn3)cc2)CC1 (stereo not drawn) [Compound 439] | 100% | 100% |  |  |
| CCn1nnc(-c2ccc(CN3CCC(C(OC(=O)Nc4ccc(C(F)(F)F)cc4)c4cccc(F)c4)CC3)cc2)n1 (stereo not drawn) [Compound 587] | 100% | 100% |  |  |
| CCON=Cc1ccc(CN2CCC(C(OC(=O)Nc3ccc(Cl)cc3C(F)(F)F)c3ccc(C(F)(F)F)cc3)CC2)cc1 (stereo not drawn) [Compound 206] | 100% | 100% |  |  |
| N#Cc1cccnc1Oc1ccc(CN2CCC(C(OC(=O)Nc3cc(F)cc(F)c3)c3ccc(C(F)(F)F)cc3)CC2)cc1 (stereo not drawn) [Compound 687] | 100% | 100% |  |  |
| CCON=Cc1ccc(CN2CCC(C(OC(=O)Nc3ccc(OC(F)(F)F)cc3)c3ccc(C(F)(F)F)cc3)CC2)cc1 (stereo not drawn) [Compound 211] | 100% | 100% |  |  |
| CCn1nnc(-c2ccc(CN3CCC(C(OC(=O)Nc4ccc(C(F)(F)F)cc4)c4ccc(-c5ccccc5)cc4)CC3)cc2)n1 (stereo not drawn) [Compound 615] | 17% | 72% |  |  |
| CC(C)OC(=O)OC(c1ccc(C(F)(F)F)cc1)C1CCN(Cc2ccc(Oc3ccccn3)cc2)CC1 (stereo not drawn) [Compound 770] |  |  | 0% | 76% |
| Cc1ccc(CNC(c2ccc(OC(F)(F)F)cc2)C2CCN(Cc3ccc(-c4nnn(C)n4)cc3)CC2)cc1 (stereo not drawn) [Compound 317] | 100% | 100% |  |  |
| Fc1ccc(C(=C2CCN(Cc3ccc(Oc4ccccn4)cc3)CC2)c2ccc(F)cc2)cc1 [Compound 810] |  |  | 100% | 100% |
| O=C(Nc1cc(F)cc(F)c1)OC(c1ccc(C(F)(F)F)cc1)C1CCN(Cc2ccc(Oc3cccnn3)cc2)CC1 (stereo not drawn) [Compound 736] |  |  | 100% | 100% |
| CCn1nnc(-c2ccc(CN3CCC(=C(c4ccc(F)cc4)c4ccc(F)cc4)CC3)cc2)n1 [Compound 78] | 67% | 100% |  |  |
